Assay: Solubility of the lactam in 2-heptanone carrier oil
Format: physicochemical
Details: 'also soluble at 1%' (0.5% solution used in the example)
Procedure: 2-heptanone was used as the carrier (oil phase) for the lactam at a ratio of 1:199 (Lactam:Heptanone) which equates to 0.5% lactam solution. The inventor(s) have determined that the lactam is also soluble at 1%. The isocyanate was polymethylene polyphenyl isocyanate (Mn340) and the crosslinker was hexamethylenediamine (HMDA). Emulsification was carried out at a shear of 15K. The stabiliser is a commercial naphthalene sulphonate called Morwet-D425®. Morwet forms dark brown solutions so the encapsulated slurry is often buff/brown coloured.

solubility of lactam in 2-heptanone (carrier oil): ≥ 1%
Structure (SMILES): C=C1NC(=O)C=C1c1ccc(Cl)cc1 [Ref. 488, 4-(4-chlorophenyl)-5-methylene-pyrrol-2-one]
